The values that follow come from patent US8604016B2, “Heterocyclic inhibitors of glutaminase” (Calithera Biosciences Inc., priority 2011, dated 2013).

Each structure is given as a SMILES string. Read-outs that look alike come from different tables or passages of the source.

The target in the test is recombinant form of Glutaminase 1 (GAC) (Homo sapiens, UniProt O94925). The test can be described thus: Recombinant Enzyme Assay (GAC coupled to GDH, NADH absorbance, no preincubation). In kind it is biochemical. The note with it: no preincubation. How it is done:
Enzymatic reaction was started with the addition of 50 μL of enzyme solution (50 mM Tris-HCl pH 8.0, 0.2 mM EDTA, 150 mM K2HPO4, 0.1 mg/ml BSA, 1 mM DTT, 10 ppm antifoam, 4 units/ml GDH, 4 mM adenosine diphosphate, and 4 nM GAC) and read in a Molecular Devices M5 plate reader at 20° C. The plate reader was configured to read absorbance (λ=340 nm) in kinetic mode for 15 minutes. Data was recorded as milli-absorbance units per minute and slopes were compared to a control compound and a DMSO-only control on the same plate. Compounds with slopes less than the DMSO control were considered inhibitors and plate variability was assessed using the control compound.

[1] abbreviates: read-out: GAC Delta N2 IC50 no preinc.

As for `COCCOC(C(=O)Nc1nnc(CCCCc2nnc(NC(=O)C(OCCOC)c3ccccc3)s2)s1)c1ccccc1` (stereo not drawn) [Compound 203], under setting [1], the IC50 was 1.7 µM.

On to `COC(=O)Nc1nnc(CCCCc2nnc(NC(=O)Cc3ccccc3)s2)s1` [Compound 387], for which the IC50 under setting [1] was 1.2 µM.

Regarding `O=C(Nc1nnc(CCSCCc2nnc(NC(=O)C3Cc4cc(Br)ccc4O3)s2)s1)C1Cc2cc(Br)ccc2O1` (stereo not drawn) [Compound 118], the IC50 under setting [1] came to 5 µM.

Take `N#Cc1cccc(CC(=O)Nc2nnc(CCSCCc3nnc(NC(=O)Cc4cccc(C#N)c4)s3)s2)c1` [Compound 155]: the IC50 under setting [1] is 0.27 µM.

For `O=C(Nc1nnc(CCSCCc2nnc(NC(=O)c3ccccc3CO)s2)s1)c1ccccc1CO` [Compound 180], the IC50 under setting [1] was found to be 8.8 µM.

As for `O=C(OCC(C(=O)Nc1nnc(CCCCc2nnc(NC(=O)C(COC(=O)C3CCN(C(=O)OCc4ccccc4)CC3)c3ccccc3)s2)s1)c1ccccc1)C1CCN(C(=O)OCc2ccccc2)CC1` (stereo not drawn) [Compound 301], the IC50 under setting [1] was more than 20 µM.

As for `CCOC(=O)Nc1nnc(CCCCc2nnc(NC(=O)Cc3ccccc3)s2)s1` [Compound 244], the IC50 under setting [1] was found to be 0.84 µM.

Turning to `CC(C(=O)Nc1nnc(CCSCCc2nnc(N)s2)s1)c1ccccc1` (stereo not drawn) [Compound 20], the IC50 under setting [1] amounted to 6.6 µM.

With `C=CCCC(=O)Nc1nnc(CCSCCc2nnc(NC(=O)CCC=C)s2)s1` [Compound 18], the IC50 under setting [1] stood at 4.5 µM.

Take `O=C(Cc1ccccc1)Nc1nnc(CCSCCc2nnc(NC(=O)Cc3cccnc3)s2)s1` [Compound 347]: the IC50 under setting [1] was found to be 0.22 µM.

As for `O=C(Cc1ccccc1)Nc1nnc(CCSCc2nnc(NC(=O)Cc3ccccc3)s2)s1` [Compound 199], the IC50 under setting [1] came to 0.12 µM.

With `O=C(Cc1ccccc1)Nc1nnc(CCSCCc2nnc(NC(=O)[C@@H]3CCCN3C(=O)C(F)(F)F)s2)s1` [Compound 35], the IC50 under setting [1] was found to be 18 µM.

Take `COc1ccc(CC(=O)Nc2nnc(CCSCCc3nnc(NC(=O)Cc4ccc(OC)cc4)s3)s2)cc1` [Compound 161]: the IC50 under setting [1] was 0.15 µM.

As to `COc1ccccc1CC(=O)Nc1nnc(CCSCCc2nnc(NC(=O)C(CO)c3ccccc3OC)s2)s1` (stereo not drawn) [Compound 246], the IC50 under setting [1] stood at 0.4 µM.

Regarding `O=C(Cc1ccccc1)Nc1nnc(CCNCCc2nnc(NC(=O)Cc3ccccc3)s2)s1` [Compound 149, N,N′-(5,5′-(azanediyl-bis(ethane-2,1-diyl))-bis(1,3,4-thiadiazole-5,2-diyl))-bis(2-phenylacetamide) trifluoroacetic acid], the IC50 under setting [1] was determined as 15 µM.

For `CC(C)(C)OC(=O)Nc1cccc(CC(=O)Nc2nnc(CCCCc3nnc(NC(=O)Cc4cccc(NC(=O)OC(C)(C)C)c4)s3)s2)c1` [Compound 327], the IC50 under setting [1] is more than 20 µM.

In the case of `O=C(Nc1nnc(CCCCc2nnc(NC(=O)[C@@H]3CC3c3ccccc3)s2)s1)C1CC1c1ccccc1` (stereo partly drawn) [Compound 90], under setting [1], the IC50 was more than 20 µM.

Consider `CC(CO)(CO)C(=O)Nc1nnc(CCCCc2nnc(NC(=O)C(C)(CO)CO)s2)s1` [Compound 151], for which the IC50 under setting [1] was determined as 14 µM.

Turning to `O=C(Nc1nnc(CCCCc2nnc(NC(=O)C3CCCC3)s2)s1)C1CCCC1` [Compound 53], under setting [1], the IC50 was more than 50 µM.

On to `CCOc1ccccc1CC(=O)Nc1nnc(CCSCCc2nnc(NC(=O)Cc3ccccc3OCC)s2)s1` [Compound 299], for which, under setting [1], the IC50 came to 0.33 µM.

`O=C(Nc1nnc(CCCCc2nnc(NC(=O)[C@H](O)c3ccccc3)s2)s1)[C@H](O)c1ccccc1` [Compound 80]: the IC50 under setting [1] was 1.8 µM.

With `O=C1CC(C(=O)Nc2nnc(CCCCc3nnc(NC(=O)C4CC(=O)c5ccccc54)s3)s2)c2ccccc21` (stereo not drawn) [Compound 64], under setting [1], the IC50 worked out at 1.3 µM.

Consider `O=C(Nc1nnc(CCCCc2nnc(NC(=O)C(O)c3ccccc3)s2)s1)C(O)c1ccccc1` (stereo not drawn) [Compound 174], for which, under setting [1], the IC50 is 0.29 µM.

For the compound `O=C(Nc1nnc(CCCCc2nnc(NC(=O)[C@@H](O)[C@H](O)c3ccccc3)s2)s1)[C@@H](O)[C@H](O)c1ccccc1` [Compound 226], the IC50 under setting [1] was 2.3 µM.

In the case of `CC(C)(CCc1nnc(NC(=O)Cc2ccccc2)s1)CCc1nnc(NC(=O)Cc2ccccc2)s1` [Compound 10], the IC50 under setting [1] is more than 50 µM.

On to `N[C@@H](CO)C(=O)Nc1nnc(CCCCc2nnc(NC(=O)[C@@H](N)CO)s2)s1` [Compound 140], for which, under setting [1], the IC50 worked out at 3.4 µM.

Regarding `O=C(Nc1nnc(CCSCCc2nnc(NC(=O)c3cc4ccccc4o3)s2)s1)c1cc2ccccc2o1` [Compound 215], under setting [1], the IC50 worked out at 16 µM.

`O=C(Nc1nnc(CCCCc2nnc(NC(=O)C(F)(F)F)s2)s1)C(F)(F)F` [Compound 45]: under setting [1], the IC50 is more than 50 µM.

In the case of `COc1ccc(Cl)c(CC(=O)Nc2nnc(CCCCc3nnc(NC(=O)Cc4ccccc4)s3)s2)c1F` [Compound 343], the IC50 under setting [1] was 0.16 µM.

In the case of `COc1ccc(OC)c(CC(=O)Nc2nnc(CCCCc3nnc(NC(=O)Cc4ccccc4)s3)s2)c1` [Compound 271], the IC50 under setting [1] was found to be 0.1 µM.

Take `O=C(CC1CCCC1)Nc1nnc(CCCCc2nnc(NC(=O)CC3CCCC3)s2)s1` [Compound 61]: the IC50 under setting [1] is more than 50 µM.

On to `O=C(Cc1cccnc1)Nc1nnc(CCSCCc2nnc(NC(=O)Cc3cccnc3)s2)s1` [Compound 638], for which the IC50 (read-out: GAC Delta N2 IC50 no) came to 0.48 µM.

With `O=C(Nc1nnc(CCCCc2nnc(NC(=O)C(CO)c3cccs3)s2)s1)C(CO)c1cccs1` (stereo not drawn) [Compound 190], under setting [1], the IC50 worked out at 0.25 µM.

Consider `O=C(CCc1ccccc1)Nc1nnc(CCCCc2nnc(NC(=O)CCc3ccccc3)s2)s1` [Compound 106], for which, under setting [1], the IC50 is more than 20 µM.

With `CC(O)(C(=O)Nc1nnc(CCSCCc2nnc(NC(=O)C(C)(O)C(F)(F)F)s2)s1)C(F)(F)F` (stereo not drawn) [Compound 109], under setting [1], the IC50 was more than 20 µM.

Regarding `COc1cccc(CC(=O)Nc2nnc(CCCCc3nnc(NC(=O)Cc4cccc(OC)c4OC)s3)s2)c1OC` [Compound 260], the IC50 under setting [1] worked out at 0.15 µM.

`COC(=O)c1cccc(NC(=O)Nc2nnc(CCSCCc3nnc(NC(=O)Nc4cccc(C(=O)OC)c4)s3)s2)c1` [Compound 31]: under setting [1], the IC50 is more than 50 µM.

Regarding `CO[C@@H](C(=O)Nc1nnc(CCCCc2nnc(NC(=O)[C@H](OC)c3ccccc3)s2)s1)c1ccccc1` [Compound 147], the IC50 under setting [1] worked out at 0.62 µM.

As to `COC(=O)C(C(=O)Nc1nnc(CCCCc2nnc(NC(=O)C(C(=O)OC)c3ccccc3)s2)s1)c1ccccc1` (stereo not drawn) [Compound 220], the IC50 under setting [1] is 1.6 µM.

With `O=C(Nc1nnc(CCCCc2nnc(NC(=O)[C@H](O)Cc3ccccc3)s2)s1)[C@H](O)Cc1ccccc1` [Compound 169], the IC50 under setting [1] was 0.71 µM.

On to `NCC(C(=O)Nc1nnc(CCSCCc2nnc(NC(=O)C(CN)c3ccccc3)s2)s1)c1ccccc1` (stereo not drawn) [Compound 230], for which the IC50 under setting [1] was determined as 12 µM.

With `O=C(COc1ccccc1)Nc1nnc(CCCCc2nnc(NC(=O)COc3ccccc3)s2)s1` [Compound 43], the IC50 under setting [1] was determined as 2.3 µM.

As to `O=C(Cc1cccc2[nH]ccc12)Nc1nnc(CCCCc2nnc(NC(=O)Cc3cccc4[nH]ccc34)s2)s1` [Compound 323], the IC50 under setting [1] turned out to be 0.056 µM.

`O=C(Nc1nnc(CCSCCc2nnc(NC(=O)[C@H](O)c3ccccc3)s2)s1)[C@H](O)c1ccccc1` [Compound 81]: under setting [1], the IC50 is 10 µM.

Regarding `CC(=O)O[C@H](C(=O)Nc1nnc(CCSCCc2nnc(NC(=O)[C@@H](OC(C)=O)c3ccccc3)s2)s1)c1ccccc1` [Compound 71], under setting [1], the IC50 is more than 50 µM.

Take `O=C(Nc1nnc(CCCCc2nnc(NC(=O)C3Cc4cc(Cl)ccc4O3)s2)s1)C1Cc2cc(Cl)ccc2O1` (stereo not drawn) [Compound 120]: the IC50 under setting [1] stood at 1.8 µM.

With `O=C(Cc1ccc2ncccc2c1)Nc1nnc(CCSCCc2nnc(NC(=O)Cc3ccc4ncccc4c3)s2)s1` [Compound 268], the IC50 under setting [1] amounted to 0.6 µM.

With `N[C@H](C(=O)Nc1nnc(CCSCCc2nnc(NC(=O)[C@@H](N)c3ccccc3)s2)s1)c1ccccc1` [Compound 175], the IC50 under setting [1] turned out to be 6.3 µM.

`CC(CO)(CO)C(=O)Nc1nnc(CCCCc2nnc(NC(=O)Cc3cccc(F)c3)s2)s1` [Compound 152, N,N′-(5-(4-(5-(2-(3-fluorophenyl)acetamido)-1,3,4-thiadiazol-2-yl)butyl)-1,3,4-thiadiazol-2-yl)-3-hydroxy-2-(hydroxymethyl)-2-methylpropanamide]: the IC50 under setting [1] is 0.73 µM.

Consider `CC(O)(C(=O)Nc1nnc(CCSCCc2nnc(N)s2)s1)C(F)(F)F` (stereo not drawn) [Compound 56], for which the IC50 under setting [1] is more than 50 µM.

Take `CC(=O)OC(C)(C)C(=O)Nc1nnc(CCCCc2nnc(NC(=O)C(C)(C)OC(C)=O)s2)s1` [Compound 96]: the IC50 under setting [1] is more than 20 µM.

As for `O=C(Cc1cc2ccccc2s1)Nc1nnc(CCCCc2nnc(NC(=O)Cc3cc4ccccc4s3)s2)s1` [Compound 233], the IC50 under setting [1] stood at 15 µM.

`CC(C)(C)OC(=O)NC(C(=O)Nc1nnc(CCCCc2nnc(NC(=O)C(NC(=O)OC(C)(C)C)C3CCCC3)s2)s1)C1CCCC1` (stereo not drawn) [Compound 113]: under setting [1], the IC50 was more than 20 µM.

For the compound `O=C(Nc1nnc(CCCc2nnc(NC(=O)C(O)c3ccccc3)s2)s1)C(O)c1ccccc1` (stereo not drawn) [Compound 172], under setting [1], the IC50 was 1.7 µM.

Take `COc1cccc(C(CO)C(=O)Nc2nnc(CCCCc3nnc(NC(=O)C(CO)c4cccc(OC)c4)s3)s2)c1` (stereo not drawn) [Compound 257]: the IC50 under setting [1] worked out at 0.12 µM.

With `CC(C)(C)OC(=O)N1CCC(CC(=O)Nc2nnc(CCSCCc3nnc(NC(=O)CC4CCN(C(=O)OC(C)(C)C)CC4)s3)s2)CC1` [Compound 111], under setting [1], the IC50 is 0.95 µM.

`CC(C)(C)OC(=O)N1CCC(CC(=O)Nc2nnc(CCCCc3nnc(NC(=O)CC4CCN(C(=O)OC(C)(C)C)CC4)s3)s2)CC1` [Compound 114]: the IC50 under setting [1] is 0.6 µM.

For the compound `O=C(Cc1ccccc1Br)Nc1nnc(CCCCc2nnc(NC(=O)Cc3ccccc3Br)s2)s1` [Compound 282], under setting [1], the IC50 came to 0.082 µM.

For `O=C(CO)Nc1nnc(CCSCCc2nnc(NC(=O)CO)s2)s1` [Compound 253], the IC50 under setting [1] amounted to 21 µM.

As for `O=C(Cc1ccccc1)Nc1nnc(CCSCc2nnc(NC(=O)Cc3cccc(OCCN4CCOCC4)c3)s2)s1` [Compound 378], the IC50 under setting [1] was found to be 0.22 µM.
